The values below come from patent US20250235543A1, “MODIFIED PROTEINS AND PROTEIN DEGRADERS” (Cullgen (Shanghai), Inc., priority 2021, published 2025).

Experiment [1] has as its target T1, CDK4 (Homo sapiens, UniProt P11802).
T1 construct: endogenous in cells; host or cells: Calu-1
The experiment in a line: CDK4 percentage degradation in Calu-1 cells (immunoblotting). Type of experiment: cell-based. As to conditions: read-out: CDK4 Degradation (200 nM). The method in brief: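 CDK4 degradation was measured by immunoblotting. Cells were washed in cold PBS and lysed in RIPA buffer with inhibitors for 30 min at 4° C., then spun at 13,000 rpm to clear. After BCA protein determination, lysates were heated at 99° C. for 5 min in Laemmli buffer, resolved on SDS-PAGE, imaged on a ChemiDoc MP with ECL substrate, and band intensities quantified.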
A general note: Immunoblotting shows a protein as a band on a membrane.

In experiment [2] the test system is cyclin D1. Briefly: Cyclin D1 percentage degradation in Calu-1 cells (immunoblotting). Type of experiment: cell-based. Conditions: 200 nM, 16 hours. The essentials:
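Cyclin D1 degradation was assessed by western blot. Clarified lysates, obtained by RIPA lysis with inhibitors and centrifugation at 13,000 rpm, were normalized by BCA protein assay and separated by SDS-PAGE. Bands were detected with Western ECL Substrate on a Bio-Rad ChemiDoc MP Imaging system and quantified in Image Lab software to derive percentage degradation.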

Where two headings read alike, the source gives them in different places. Some results are limits rather than exact numbers.

T1 sequence (P11802 2-303 limits assumed): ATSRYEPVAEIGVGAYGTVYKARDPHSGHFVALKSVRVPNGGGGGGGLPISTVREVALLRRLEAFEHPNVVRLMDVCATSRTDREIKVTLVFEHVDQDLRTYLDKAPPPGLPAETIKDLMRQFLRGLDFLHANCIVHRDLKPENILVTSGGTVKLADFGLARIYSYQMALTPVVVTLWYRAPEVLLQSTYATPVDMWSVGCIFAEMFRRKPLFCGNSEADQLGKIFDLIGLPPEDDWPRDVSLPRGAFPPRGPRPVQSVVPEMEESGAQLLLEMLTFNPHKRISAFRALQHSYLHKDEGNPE
T1 sequence (P24385 whole entry partner): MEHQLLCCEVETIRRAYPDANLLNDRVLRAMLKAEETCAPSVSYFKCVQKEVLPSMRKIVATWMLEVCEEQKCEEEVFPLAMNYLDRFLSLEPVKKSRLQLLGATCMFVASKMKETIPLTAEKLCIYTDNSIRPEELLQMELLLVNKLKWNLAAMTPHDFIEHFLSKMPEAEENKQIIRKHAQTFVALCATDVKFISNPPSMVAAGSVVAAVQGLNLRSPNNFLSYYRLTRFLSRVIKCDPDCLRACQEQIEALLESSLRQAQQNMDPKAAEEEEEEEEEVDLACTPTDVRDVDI
T1 sequence (Q16531 2-1140 limits assumed, further chain): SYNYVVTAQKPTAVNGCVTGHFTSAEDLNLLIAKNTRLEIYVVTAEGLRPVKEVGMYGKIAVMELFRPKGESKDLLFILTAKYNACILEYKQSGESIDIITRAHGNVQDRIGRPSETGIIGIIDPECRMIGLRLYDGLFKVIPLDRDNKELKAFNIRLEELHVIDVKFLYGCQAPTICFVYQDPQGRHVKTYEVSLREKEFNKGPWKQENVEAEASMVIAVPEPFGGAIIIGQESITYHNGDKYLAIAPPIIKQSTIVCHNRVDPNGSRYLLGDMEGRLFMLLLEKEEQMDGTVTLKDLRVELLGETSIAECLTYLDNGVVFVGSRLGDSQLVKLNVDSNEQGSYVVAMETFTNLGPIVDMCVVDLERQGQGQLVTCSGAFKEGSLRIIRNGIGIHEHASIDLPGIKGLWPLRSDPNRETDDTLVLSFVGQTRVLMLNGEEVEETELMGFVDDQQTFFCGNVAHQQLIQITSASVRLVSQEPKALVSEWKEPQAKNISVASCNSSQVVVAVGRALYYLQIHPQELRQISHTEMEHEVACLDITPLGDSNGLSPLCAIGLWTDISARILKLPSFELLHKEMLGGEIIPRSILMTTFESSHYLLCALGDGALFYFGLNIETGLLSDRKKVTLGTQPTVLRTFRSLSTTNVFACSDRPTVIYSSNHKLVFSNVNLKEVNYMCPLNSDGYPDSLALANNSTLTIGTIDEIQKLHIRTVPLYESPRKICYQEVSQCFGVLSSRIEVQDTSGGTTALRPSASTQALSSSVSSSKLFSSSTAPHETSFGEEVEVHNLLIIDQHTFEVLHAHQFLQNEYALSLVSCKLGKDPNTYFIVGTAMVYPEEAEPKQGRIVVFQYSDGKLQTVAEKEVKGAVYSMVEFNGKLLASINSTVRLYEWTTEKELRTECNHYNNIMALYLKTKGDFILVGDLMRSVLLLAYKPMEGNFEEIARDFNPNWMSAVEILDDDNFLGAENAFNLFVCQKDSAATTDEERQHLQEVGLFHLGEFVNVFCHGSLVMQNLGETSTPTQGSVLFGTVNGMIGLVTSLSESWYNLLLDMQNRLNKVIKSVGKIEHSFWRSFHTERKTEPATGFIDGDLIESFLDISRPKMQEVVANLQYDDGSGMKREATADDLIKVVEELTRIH

`CCCCNc1ccc(C(=O)Nc2nc(C)c(C)s2)c(NC(=O)CCOCCOCCNC(=O)CN2CCN(c3ccc(Nc4ncc5c(C)c(C(C)=O)c(=O)n(C6CCCC6)c5n4)nc3)CC2)c1` [CPD-168, 2-(3-(2-(2-(2-(4-(6-((6-Acetyl-8-cyclopentyl-5-methyl-7-oxo-7,8-dihydropyrido[2,3-d]pyrimidin-2-yl)amino)pyridin-3-yl)piperazin-1-yl)acetamido)ethoxy)ethoxy)propanamido)-4-(butylamino)-N-(4,5-dimethylthiazol-2-yl)benzamide]: the inhibition at 0.2 µM in experiment [1] (Calu-1 cells, 200 nM, 16 hours) was in the range of 50 to 80%. Further, in experiment [2], the “CyclinD1 Degradation (200 nM)” value was “A (protein percentage degradation >=80%)”.

Take `CC(=O)c1c(C)c2cnc(Nc3ccc(N4CCN(CC(=O)NCCCCCCC(=O)Nc5ccccc5C(=O)Nc5nc(C)c(C)s5)CC4)cn3)nc2n(C2CCCC2)c1=O` [CPD-169, 2-(7-(2-(4-(6-((6-Acetyl-8-cyclopentyl-5-methyl-7-oxo-7,8-dihydropyrido[2,3-d]pyrimidin-2-yl)amino)pyridin-3-yl)piperazin-1-yl)acetamido)heptanamido)-N-(4,5-dimethylthiazol-2-yl)benzamide]: in experiment [1] (Calu-1 cells, 200 nM, 16 hours), the inhibition at 0.2 µM is under 30%. Further, in experiment [2], the “CyclinD1 Degradation (200 nM)” value is “D (protein percentage degradation <30%)”.

As to `CC(=O)c1c(C)c2cnc(Nc3ccc(N4CCN(CC(=O)NCCOCCOCCOCCOCCC(=O)Nc5ccccc5C(=O)Nc5nc(C)c(C)s5)CC4)cn3)nc2n(C2CCCC2)c1=O` [CPD-170, 2-(1-(4-(6-((6-Acetyl-8-cyclopentyl-5-methyl-7-oxo-7,8-dihydropyrido[2,3-d]pyrimidin-2-yl)amino)pyridin-3-yl)piperazin-1-yl)-2-oxo-6,9,12,15-tetraoxa-3-azaoctadecan-18-amido)-N-(4,5-dimethylthiazol-2-yl)benzamide], in experiment [1] (Calu-1 cells, 200 nM, 16 hours), the inhibition at 0.2 µM is 50 to 80%. The “CyclinD1 Degradation (200 nM)” value in experiment [2] is recorded as “A (protein percentage degradation >=80%)”.

Regarding `CC(=O)c1c(C)c2cnc(Nc3ccc(N4CCN(CC(=O)NCCCC(=O)Nc5ccccc5C(=O)Nc5nc(C)c(C)s5)CC4)cn3)nc2n(C2CCCC2)c1=O` [CPD-171, 2-(4-(2-(4-(6-((6-Acetyl-8-cyclopentyl-5-methyl-7-oxo-7,8-dihydropyrido[2,3-d]pyrimidin-2-yl)amino)pyridin-3-yl)piperazin-1-yl)acetamido)butanamido)-N-(4,5-dimethylthiazol-2-yl)benzamide], in experiment [1] (Calu-1 cells, 200 nM, 16 hours), the inhibition at 0.2 µM was under 30%. The “CyclinD1 Degradation (200 nM)” value in experiment [2] is reported as “D (protein percentage degradation <30%)”.

For the compound `CC(=O)c1c(C)c2cnc(Nc3ccc(N4CCN(CC(=O)NCCCCCC(=O)Nc5ccccc5C(=O)Nc5nc(C)c(C)s5)CC4)cn3)nc2n(C2CCCC2)c1=O` [CPD-172, 2-(6-(2-(4-(6-((6-Acetyl-8-cyclopentyl-5-methyl-7-oxo-7,8-dihydropyrido[2,3-d]pyrimidin-2-yl)amino)pyridin-3-yl)piperazin-1-yl)acetamido)hexanamido)-N-(4,5-dimethylthiazol-2-yl)benzamide], in experiment [1] (Calu-1 cells, 200 nM, 16 hours), the inhibition at 0.2 µM fell in the range of 30 to 50%. The “CyclinD1 Degradation (200 nM)” value in experiment [2] was “D (protein percentage degradation <30%)”.

Consider `CC(=O)c1c(C)c2cnc(Nc3ccc(N4CCN(CC(=O)NCCOCCOCCOCCOCCOCCOCCC(=O)Nc5ccccc5C(=O)Nc5nc(C)c(C)s5)CC4)cn3)nc2n(C2CCCC2)c1=O` [CPD-173, 2-(1-(4-(6-((6-Acetyl-8-cyclopentyl-5-methyl-7-oxo-7,8-dihydropyrido[2,3-d]pyrimidin-2-yl)amino)pyridin-3-yl)piperazin-1-yl)-2-oxo-6,9,12,15,18,21-hexaoxa-3-azatetracosan-24-amido)-N-(4,5-dimethylthiazol-2-yl)benzamide], for which the inhibition at 0.2 µM in experiment [1] (Calu-1 cells, 200 nM, 16 hours) was over 80%. The “CyclinD1 Degradation (200 nM)” value in experiment [2] is “A (protein percentage degradation >=80%)”.

Turning to `CC(=O)c1c(C)c2cnc(Nc3ccc(N4CCN(CC(=O)NCCCCC(=O)Nc5ccccc5C(=O)Nc5nc(C)c(C)s5)CC4)cn3)nc2n(C2CCCC2)c1=O` [CPD-174, 2-(5-(2-(4-(6-((6-Acetyl-8-cyclopentyl-5-methyl-7-oxo-7,8-dihydropyrido[2,3-d]pyrimidin-2-yl)amino)pyridin-3-yl)piperazin-1-yl)acetamido)pentanamido)-N-(4,5-dimethylthiazol-2-yl)benzamide], the inhibition at 0.2 µM in experiment [1] (Calu-1 cells, 200 nM, 16 hours) is over 80%. In experiment [2], the “CyclinD1 Degradation (200 nM)” value is “A (protein percentage degradation >=80%)”.

Turning to `CC(=O)c1c(C)c2cnc(Nc3ccc(N4CCN(CC(=O)NCCOCCOCCOCCOCCOCCC(=O)Nc5ccccc5C(=O)Nc5nc(C)c(C)s5)CC4)cn3)nc2n(C2CCCC2)c1=O` [CPD-175, 2-(1-(4-(6-((6-Acetyl-8-cyclopentyl-5-methyl-7-oxo-7,8-dihydropyrido[2,3-d]pyrimidin-2-yl)amino)pyridin-3-yl)piperazin-1-yl)-2-oxo-6,9,12,15,18-pentaoxa-3-azahenicosan-21-amido)-N-(4,5-dimethylthiazol-2-yl)benzamide], the inhibition at 0.2 µM in experiment [1] (Calu-1, 16 h) was over 80%. For the same compound, in experiment [2], the “CyclinD1 Degradation (200 nM)” value is “A (protein percentage degradation >=80%)”.

Turning to `CC(=O)c1c(C)c2cnc(Nc3ccc(N4CCN(C(=O)CCOCCOCCOCCOCCC(=O)Nc5ccccc5C(=O)Nc5nc(C)c(C)s5)CC4)cn3)nc2n(C2CCCC2)c1=O` [CPD-176, 16-(4-(6-((6-Acetyl-8-cyclopentyl-5-methyl-7-oxo-7,8-dihydropyrido[2,3-d]pyrimidin-2-yl)amino)pyridin-3-yl)piperazin-1-yl)-N-(2-((4,5-dimethylthiazol-2-yl)carbamoyl)phenyl)-16-oxo-4,7,10,13-tetraoxahexadecanamide], in experiment [1] (Calu-1, 16 h), the inhibition at 0.2 µM was over 80%. Moreover, the “CyclinD1 Degradation (200 nM)” value in experiment [2] is “A (protein percentage degradation >=80%)”.

On to `CC(=O)c1c(C)c2cnc(Nc3ccc(N4CCN(CCCCCCCCCCCC(=O)Nc5ccccc5C(=O)Nc5nc(C)c(C)s5)CC4)cn3)nc2n(C2CCCC2)c1=O` [CPD-177, 2-(12-(4-(6-((6-Acetyl-8-cyclopentyl-5-methyl-7-oxo-7,8-dihydropyrido[2,3-d]pyrimidin-2-yl)amino)pyridin-3-yl)piperazin-1-yl)dodecanamido)-N-(4,5-dimethylthiazol-2-yl)benzamide], for which, in experiment [1] (Calu-1, 16 h), the inhibition at 0.2 µM was under 30%. In experiment [2], the “CyclinD1 Degradation (200 nM)” value was “D (protein percentage degradation <30%)”.

Regarding `CC(=O)c1c(C)c2cnc(Nc3ccc(N4CCN(CCOCCOCCOCCC(=O)Nc5ccccc5C(=O)Nc5nc(C)c(C)s5)CC4)cn3)nc2n(C2CCCC2)c1=O` [CPD-178, 2-(3-(2-(2-(2-(4-(6-((6-Acetyl-8-cyclopentyl-5-methyl-7-oxo-7,8-dihydropyrido[2,3-d]pyrimidin-2-yl)amino)pyridin-3-yl)piperazin-1-yl)ethoxy)ethoxy)ethoxy)propanamido)-N-(4,5-dimethylthiazol-2-yl)benzamide], the inhibition at 0.2 µM in experiment [1] (Calu-1, 16 h) is under 30%. In addition, in experiment [2], the “CyclinD1 Degradation (200 nM)” value is on record as “D (protein percentage degradation <30%)”.

`CC(=O)c1c(C)c2cnc(Nc3ccc(N4CCN(CC(=O)NCCOCCOCCC(=O)NC5CCCCC5C(=O)Nc5nc(C)c(C)s5)CC4)cn3)nc2n(C2CCCC2)c1=O` (centres unmarked) [CPD-179, 2-(3-(2-(2-(2-(4-(6-((6-Acetyl-8-cyclopentyl-5-methyl-7-oxo-7,8-dihydropyrido[2,3-d]pyrimidin-2-yl)amino)pyridin-3-yl)piperazin-1-yl)acetamido)ethoxy)ethoxy)propanamido)-N-(4,5-dimethylthiazol-2-yl)cyclohexane-1-carboxamide]: the inhibition at 0.2 µM in experiment [1] (Calu-1 cells, 200 nM, 16 hours) is under 30%. The “CyclinD1 Degradation (200 nM)” value in experiment [2] is given as “D (protein percentage degradation <30%)”.

`CC(=O)c1c(C)c2cnc(Nc3ccc(N4CCN(CC(=O)NCC(=O)Nc5ccccc5C(=O)Nc5nc(C)c(C)s5)CC4)cn3)nc2n(C2CCCC2)c1=O` [CPD-180, 2-(2-(2-(4-(6-((6-Acetyl-8-cyclopentyl-5-methyl-7-oxo-7,8-dihydropyrido[2,3-d]pyrimidin-2-yl)amino)pyridin-3-yl)piperazin-1-yl)acetamido)acetamido)-N-(4,5-dimethylthiazol-2-yl)benzamide]: the inhibition at 0.2 µM in experiment [1] (Calu-1 cells, 200 nM, 16 hours) was under 30%. Also, the “CyclinD1 Degradation (200 nM)” value in experiment [2] was “D (protein percentage degradation <30%)”.

With `CC(=O)c1c(C)c2cnc(Nc3ccc(N4CCN(C(=O)CCOCCC(=O)Nc5ccccc5C(=O)Nc5nc(C)c(C)s5)CC4)cn3)nc2n(C2CCCC2)c1=O` [CPD-181, 2-(3-(3-(4-(6-((6-Acetyl-8-cyclopentyl-5-methyl-7-oxo-7,8-dihydropyrido[2,3-d]pyrimidin-2-yl)amino)pyridin-3-yl)piperazin-1-yl)-3-oxopropoxy)propanamido)-N-(4,5-dimethylthiazol-2-yl)benzamide], the inhibition at 0.2 µM in experiment [1] (Calu-1, 16 h) is under 30%. For the same compound, in experiment [2], the “CyclinD1 Degradation (200 nM)” value was “D (protein percentage degradation <30%)”.

Take `CC(=O)c1c(C)c2cnc(Nc3ccc(N4CCN(C(=O)CCOCCOCCOCCOCCOCCOCCC(=O)Nc5ccccc5C(=O)Nc5nc(C)c(C)s5)CC4)cn3)nc2n(C2CCCC2)c1=O` [CPD-182, 22-(4-(6-((6-Acetyl-8-cyclopentyl-5-methyl-7-oxo-7,8-dihydropyrido[2,3-d]pyrimidin-2-yl)amino)pyridin-3-yl)piperazin-1-yl)-N-(2-((4,5-dimethylthiazol-2-yl)carbamoyl)phenyl)-22-oxo-4,7,10,13,16,19-hexaoxadocosanamide]: in experiment [1] (Calu-1, 16 h), the inhibition at 0.2 µM is under 30%. For the same compound, in experiment [2], the “CyclinD1 Degradation (200 nM)” value was “D (protein percentage degradation <30%)”.

For `CC(=O)c1c(C)c2cnc(Nc3ccc(N4CCN(CCCCCCCC(=O)Nc5ccccc5C(=O)Nc5ccc(C)cn5)CC4)cn3)nc2n(C2CCCC2)c1=O` [CPD-183, 2-(8-(4-(6-((6-Acetyl-8-cyclopentyl-5-methyl-7-oxo-7,8-dihydropyrido[2,3-d]pyrimidin-2-yl)amino)pyridin-3-yl)piperazin-1-yl)octanamido)-N-(5-methylpyridin-2-yl)benzamide], the inhibition at 0.2 µM in experiment [1] (Calu-1, 16 h) is under 30%. In experiment [2], the “CyclinD1 Degradation (200 nM)” value is listed as “D (protein percentage degradation <30%)”.
